“Also recorded” adds a separate entry of the source. {Cy5} = Cy5 fluorescent dye; r = 2'-OH (RNA); f = 2'-fluoro
Assays:
[1] = system: EGFRvIII overexpressing HEK293T cells; assay: FACS based fluorescent molecule uptake assay; format: cell-based; details: 200 nM, 2 hours
Excerpt: A number of different cell types have been trialled for a FACS based fluorescent molecule uptake assay. These include stably transfected HEK293T cells overexpressing the truncated mutant EGFRvIII, which is characterised by a deletion of 267 amino acids in the extracellular domain and results in a receptor unable to bind ligand yet constitutively active. WT cells with various endogenous levels of EGFR expression have also been trialled: HELA cells (EGFR+), MCF-7 (EGFR-), MDA-MB-231 (EGFR+), and A549 (EGFR+). Seeding densities used were identical for all experiments and described below.
Cells were plated with 1x10^5 cells per well of 24 well plates. 24 hours later cells were treated with 200 nM of specified aptamer (A-1.0 or A-2.0) or nucleic acid nanoparticle in 250 µL DMEM media for 2 hours. To terminate internalisation, media was removed from cells and washed with 500 µL Dulbecco’s Phosphate Buffered Saline (D-PBS), followed by trypsinisation, neutralisation in DMEM media and transfer to labelled 1.5 mL Eppendorf tubes. […]
Geometric mean quantification of flow cytometry results after normalisation by removal of respective background fluorescence in untreated cells. Numbers above the bars are calculated fold increase in internalisation between control and EGFRvIII overexpressing HEK293T cells. […]

[2] = system: cancer cells expressing EGFR; assay: confocal microscopy of Cy5-labelled aptamer/construct uptake; format: cell-based; details: live HeLa cells, 200 nM, Lysotracker and early endosome GFP stains
Protocol: Cells were imaged by confocal microscopy after treatment with 200 nM Cy5-labelled E07min aptamer (A-1.0) or 200 nM Cy5-labelled constructs (SQ1-1000-001). For aptamer uptake experiments, 1x10^4 cells were plated in each well of a µ-Slide 8 well ibiditreat chamber (IBIDI), in 300 µL DMEM containing 10% v/v FBS. For uptake experiments, 3.4x10^3 cells (HeLa, MDA-MB-231 and A549 cells) or 6.8x10^3 cells (Mcf-7) were plated in each well of a µ-Slide 18 well ibiditreat chamber (IBIDI), in 100 µL DMEM containing 10% v/v FBS. 5 hours after cells had adhered and 48 hours before imaging, media was replaced with 50 particles per cell (PPC) CellLight early endosome-GFP (Thermo Fisher Scientific) for overnight incubation at 37° C. Additionally, 200 µL DMEM aliquots containing 200 nM aptamer were added to cells at corresponding incubation time points. Subsequently, media was removed and replaced with 60 nM LysoTracker Red DND-99 (Thermo Fisher Scientific) in 100-200 µL DMEM for 1 hour at 37° C. Cells were then washed once with Hank’s Balanced Salt Solution (HBSS) (Gibco). Finally, 100-200 µL imaging media (HBSS buffered with 20 mM 4-(2- hydroxyethyl)-1-piperazineethanesulfonic acid (HEPES), adjusted to pH 7.4) was added to cells. Confocal images were captured with an EVOS microscope or a Zeiss LSM510 laser scanning microscope using 60x oil objective lens. Images were produced using ImageJ software.

## [Cy5] GGAcGGAuuuAAucGccGuAGAAAAGCAuGucAAAGccGGAAccGucc (GGACGGAUUUAAUCGCCGUAGAAAAGCAUGUCAAAGCCGGAACCGUCC; sugars from the 5' end rrrfrrrfffrrffrffrfrrrrrrrrrfrffrrrrffrrrrffrfff, 5' {Cy5}, backbone not given here) [A-1.0, 2′F U, C 5′ Cy5 E07min (SXF1) aptamer, anti-EGFR, literature-known]
[1]; control vs EGFRvIII overexpressing HEK293T cells
  EGFR targeting specificity compared to a scramble control aptamer (A-3.0): 10 fold
[1]; Cy5-labelled aptamer
  specificity of uptake (flow cytometry): more specifically uptaken than SXF2 (CL4 aptamer); also recorded: specifically uptaken by EGFR expressing cells
[2]
  intracellular localisation after internalisation: accumulate in lysosomes after internalisation
